This passage reports long term stability, deliquescence and polymorphic stability results from patent US12662452B2, “Solid state forms of lucerastat and process for preparation thereof” (ASSIA CHEMICAL INDUSTRIES LTD., priority 2019, dated 2026).

Data set [1] in a line: Long term storage stability at 2-8° C. It is filed as physicochemical. Conditions: storage at 2-8° C.
Data set [2] is described as follows: Exposure of the solid form to 20-80% relative humidity for 7 days at room temperature. The conditions noted are these: exposed to 20-80% RH for 7 days at room temperature. The class given is physicochemical.

Consider “Lucerastat: Salicylic acid [Lucerastat: Salicylic acid Form LC-2]”, for which, in data set [1], the long term stability entry is listed as “at least 1 year”.
With Lucerastat: L-Pyroglutamic acid, in data set [1], the long term stability result is recorded as “at least 1 year”. In data set [2], the deliquescence result was “does not deliquesce” and the polymorphic stability result is reported as “polymorphically stable”.
